Measured values taken from US8278337B2, “Substituted pyridines that are JNK inhibitors” (Merck Sharp & Dohme, priority 2006, dated 2012).
pIC50: −log10 of the molar value. Where “and” joins values, the source holds several entries; their conditions need not be identical. Identical values can stand only once.

Biological target: JNK1 (Homo sapiens, UniProt P45983)
Assay: DELFIA kinase assay, JNK1
Type: biochemical
Details: DELFIA, biotinylated GST-ATF2 substrate, 10 minute pre-incubation, final ATP 7 uM
Experimental: Assay DELFIA (Dissociation Enhanced Lanthanide Fluorescence Immuno-Assay) Assay:
Before initiation of kinase reactions, compounds were pre-incubated with the enzyme for 10 minutes. Pre-incubation reactions contained 50 mM HEPES pH 7.3, 10 mM MgCl2, 1 mM DTT, 75 mM NaCl, 1 mM EDTA, 1 mM EGTA, 0.01% CHAPS, 2 nM JNK1, 6 ug/mL biotinylated GST-ATF2, 0.1 mg/ml BSA, 5% DMSO and 0-100 μM compound in a total volume of 40 μL. After a 10 minute room temperature pre-incubation, 10 μL of 35 μM ATP was added to start the reaction (final concentration of ATP=7 uM). Reactions were incubated at room temperature for 30 minutes. A small aliquot (10 uL) was taken and quenched by adding into 190 uL of DELFIA Assay buffer containing 100 mM EDTA. The amount of phosphate transferred to biotinylated GST-ATF2 was measured using the Dissociation Enhanced Lanthanide Fluorescence Immuno-assay (DELFIA) from Perkin Elmer according to manufacturers protocol. Briefly, biotinylated GST-ATF2 was captured on streptavidin coated plates for 1 hour, washed twice, then incubated for 1 hour with a 1:1000 dilution of rabbit-anti-phospho-ATF2 antibody and a 1:3500 dilution of Europium-labeled anti-rabbit secondary antibody. Free antibody was removed with six washes, Europium was dissociated from the antibody, and Europium fluorescence was measured using an excitation wavelength of 340 nm and an emission wavelength of 615 nm. JNK2 and JNK3 kinase reactions were carried out similarly, with the exception that the final concentration of ATP was 4 uM and 2 uM, respectively.

JNK1, sequence (P45983 whole entry, species assumed): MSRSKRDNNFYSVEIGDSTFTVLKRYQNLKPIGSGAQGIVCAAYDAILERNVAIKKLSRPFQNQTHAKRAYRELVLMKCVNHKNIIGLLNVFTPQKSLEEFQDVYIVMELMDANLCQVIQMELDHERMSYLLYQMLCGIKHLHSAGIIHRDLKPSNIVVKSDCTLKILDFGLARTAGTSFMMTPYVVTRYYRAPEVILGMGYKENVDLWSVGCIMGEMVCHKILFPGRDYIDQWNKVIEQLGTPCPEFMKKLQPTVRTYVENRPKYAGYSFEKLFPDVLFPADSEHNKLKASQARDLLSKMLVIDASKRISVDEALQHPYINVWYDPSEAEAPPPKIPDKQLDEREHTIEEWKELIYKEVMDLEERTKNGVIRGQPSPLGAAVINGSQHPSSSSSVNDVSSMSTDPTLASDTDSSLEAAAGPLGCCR

| Structure (SMILES) | pIC50 |
| --- | --- |
| CCOC(=O)N1CCC(NC(=O)c2cccc(C(=O)NCCO)n2)CC1 [Compound 40] | < 6.00 |
| CC(C)NC(=O)c1cccc(C(=O)NCc2ccccn2)n1 [Compound 101] | 5.00 to 5.99 and < 6.00 |
| Nc1nc2ccc(CNC(=O)c3cccc(C(=O)N4CCCC(O)C4)n3)cc2s1 (centres unmarked) [Compound 34] | < 6.00 |
| O=C(Nc1cccnc1)c1cccc(-n2cc(I)cn2)n1 [Compound 288] | < 6.00 and 5.00 to 5.99 |
| CCOC(=O)N1CCC(NC(=O)c2cccc(C(=O)NCc3ccc(S(C)(=O)=O)cc3)c2)CC1 [Compound 371] | < 6.00 |
| Nc1nc2ccc(CNC(=O)c3cccc(C(=O)N4CCC(c5cccc(O)c5)C(O)C4)n3)cc2s1 (centres unmarked) [Compound 31] | < 6.00 |
| C[C@H](NC(=O)c1cccc(C(=O)NCc2ccc3nc(N)sc3c2)n1)C(=O)O [Compound 66] | < 6.00 and 5.00 to 5.99 |
| C[C@H](CO)NC(=O)c1cc(-c2cccs2)cc(C(=O)NCc2ccc(S(C)(=O)=O)cc2)n1 [Compound 417] | < 6.00 and 5.00 to 5.99 |
| CCNC(=O)c1cc(Cl)cc(C(=O)NCc2ccc(S(C)(=O)=O)cc2)n1 [Compound 408] | < 6.00 and 5.00 to 5.99 |
| CS(=O)(=O)c1ccc(CNC(=O)c2cccc(-n3cnc(Br)c3)n2)cc1 [Compound 327] | 5.00 to 5.99 and < 6.00 |
| COC(=O)c1cccc(C2CCN(C(=O)c3cccc(C(=O)NCc4ccc5nc(N)sc5c4)n3)CC2O)c1 (centres unmarked) [Compound 32] | < 6.00 |
| CC(C)[C@H](CO)NC(=O)c1cccc(C(=O)NCc2ccc3nc(N)sc3c2)n1 [Compound 59] | < 6.00 |
| CC(C)C[C@@H](CO)NC(=O)c1cccc(C(=O)NCc2ccc3nc(N)sc3c2)n1 [Compound 20] | < 6.00 |
| Nc1nc2ccc(CNC(=O)c3cccc(C(=O)N4CCC(O)CC4)n3)cc2s1 [Compound 35] | < 6.00 |
| CC(C)NC(=O)c1cccc(-c2nc3ccccc3[nH]2)n1 [Compound 377] | < 6.00 and 5.00 to 5.99 |
| CC(C)NC(=O)c1cccc(C(=O)NCc2cn[nH]c2)n1 [Compound 119] | < 6.00 and 5.00 to 5.99 |
| C[C@@H](CO)NC(=O)c1cc(-c2cccs2)cc(C(=O)NCc2ccc(S(C)(=O)=O)cc2)n1 [Compound 416] | < 6.00 and 5.00 to 5.99 |
| CS(=O)(=O)c1ccc(CNC(=O)c2cccc(-c3nc4ccccc4[nH]3)n2)cc1 [Compound 376] | 6.02 to 6.99 |

| Structure (SMILES) | pIC50 |
| --- | --- |
| CN1CCC(NC(=O)c2cccc(C(=O)NCc3ccc4nc(N)sc4c3)n2)CC1 [Compound 29] | < 6.00 |
| CCOC(=O)N1CCC(NC(=O)c2cccc(NC(C)=O)n2)CC1 [Compound 399] | < 6.00 and 5.00 to 5.99 |
| Nc1nc2ccc(CNC(=O)c3cccc(NCc4ccccc4)n3)cc2s1 [Compound 263] | < 6.00 |
| CC(C)NC(=O)c1cccc(C(=O)NCc2ccc(-c3ccc(F)c(Cl)c3)nc2)n1 [Compound 184] | 6.02 to 6.99 |
| Cc1nn(-c2ccccc2)c(C)c1CNC(=O)c1cccc(C(=O)NC(C)C)n1 [Compound 105] | 5.00 to 5.99 and < 6.00 |
| C[C@@H](CO)NC(=O)c1cc(-c2ccccc2)cc(C(=O)NCc2ccc(S(C)(=O)=O)cc2)n1 [Compound 407] | < 6.00 and 5.00 to 5.99 |
| CCOC(=O)N1CCC(NC(=O)c2cccc(Nc3ccc(N4CCOCC4)cc3)n2)CC1 [Compound 390] | < 6.00 |
| CC(C)NC(=O)c1cccc(C(=O)NCc2cccc(-c3ccc(C#N)cc3)c2)n1 [Compound 190] | 6.02 to 6.99 |
| O=C(NCc1cnn(-c2cccc(C(F)(F)F)c2)c1)c1cccc(N2CCOCC2)n1 [Compound 345] | 5.00 to 5.99 and < 6.00 |
| CC(C)(C)c1cnn(-c2cccc(C(=O)NCc3ccc(S(C)(=O)=O)cc3)n2)c1 [Compound 336] | 6.02 to 6.99 |
| Nc1nc2ccc(CNC(=O)c3cccc(C(=O)N[C@H]4CC[C@H](O)CC4)n3)cc2s1 [Compound 68] | 6.02 to 6.99 |
| Cc1nc2cc(CNC(=O)c3cccc(C(=O)NC(C)C)n3)ccc2n1C [Compound 127] | 6.02 to 6.99 |
| CC(C)NC(=O)c1cccc(C(=O)NCc2ccc(-c3cccc(C(F)(F)F)c3)nc2)n1 [Compound 183] | 6.02 to 6.99 |
| CCOC(=O)N1CCC(NC(=O)c2cccc(Nc3ccc4ncccc4c3)n2)CC1 [Compound 389] | < 6.00 |
| CS(=O)(=O)c1ccc(-n2cc(CNC(=O)c3cccc(-n4cc(-c5ccc(F)cc5)cn4)n3)cn2)cc1 [Compound 296] | 6.02 to 6.99 |
| NC(=O)Nc1cccc(C(=O)NCc2cnn(-c3cccc(C(F)(F)F)c3)c2)n1 [Compound 356] | 6.02 to 6.99 |
| Nc1nc2ccc(CNC(=O)c3cccc(C(=O)NC4CCCC4)n3)cc2s1 [Compound 67] | 6.02 to 6.99 |
| CC(C)NC(=O)c1cccc(C(=O)NCc2ccc(-c3ccc4ncccc4c3)nc2)n1 [Compound 186] | 6.02 to 6.99 |

The remaining lines, values ahead:

| pIC50 | Structure (SMILES) |
| --- | --- |
| 7.01 to 8.40 | CC(C)NC(=O)c1cccc(C(=O)NCc2cncc(-c3cccc(S(C)(=O)=O)c3)c2)n1 [Compound 256] |
| 6.02 to 6.99 | CC(C)NC(=O)c1cccc(C(=O)N[C@@H](C)c2ccc(O)cc2)n1 [Compound 124] |
| 7.01 to 8.40 | Cc1cccc(-n2cc(CNC(=O)c3ccc(F)c(C(=O)NC(C)C)n3)cn2)c1 [Compound 428] |
| 6.02 to 6.99 | CC(C)CCNC(=O)c1cccc(C(=O)NCc2ccc3nc(N)sc3c2)n1 [Compound 71] |
| 6.02 to 6.99 | CS(=O)(=O)c1ccc(CNC(=O)c2cccc(-n3cc(I)cn3)n2)cc1 [Compound 318] |
| 6.02 to 6.99 | COc1cccc(-c2cccc(C(=O)NCc3ccc(S(C)(=O)=O)cc3)n2)c1F [Compound 330] |
| 7.01 to 8.40 | CNCCNc1nc2ccc(CNC(=O)c3cccc(C(=O)NC(C)C)n3)cc2s1 [Compound 203] |
| 7.01 to 8.40 | CNc1nc2ccc(CNC(=O)c3cccc(C(=O)NC(C)C)n3)cc2s1 [Compound 200] |
| 7.01 to 8.40 | CC[C@@H](CO)NC(=O)c1cccc(C(=O)NCc2ccc3nc(N)sc3c2)n1 [Compound 9] |
| 6.02 to 6.99 | CC(C)NC(=O)c1cccc(C(=O)NCc2ccc(-c3cc(Cl)cc(Cl)c3)nc2)n1 [Compound 185] |
| 6.02 to 6.99 | COc1cccc2ccc(C(=O)NCc3ccc(S(C)(=O)=O)cc3)nc12 [Compound 383] |
| 7.01 to 8.40 | CC(C)NC(=O)c1cccc(C(=O)NCc2cnn(-c3ccc(F)c(C(F)(F)F)c3)c2)n1 [Compound 150] |
| 6.02 to 6.99 | CC(C)NC(=O)c1cccc(C(=O)NCc2cnn(-c3ccccn3)c2)n1 [Compound 156] |
| 6.02 to 6.99 | NC(=O)c1cccc(C(=O)NCc2ccc3nc(N)sc3c2)n1 [Compound 52] |
| 6.02 to 6.99 | CC(C)C(=O)Nc1cccc(C(=O)NCc2cnn(-c3cccc(C(F)(F)F)c3)c2)n1 [Compound 354] |
| 7.01 to 8.40 | CC(C)NC(=O)c1cccc(C(=O)NCc2cnn(-c3cnc4[nH]cnc4c3)c2)n1 [Compound 219] |
| 7.01 to 8.40 | C[C@@H](CO)NC(=O)c1cccc(C(=O)NCc2ccc3nc(N)sc3c2)n1 [Compound 6] |
| 7.01 to 8.40 | COc1ccc(-c2cc(CNC(=O)c3cccc(C(=O)NC(C)C)n3)no2)cc1 [Compound 86] |
| 7.01 to 8.40 | CC(C)NC(=O)c1cccc(C(=O)NCc2cccc(-c3ccccc3)c2)n1 [Compound 125] |
| 7.01 to 8.40 | CC(C)NC(=O)c1cccc(C(=O)NCc2cnn(-c3ccc4nccn4c3)c2)n1 [Compound 210] |
| 7.01 to 8.40 | CC(C)NC(=O)c1cccc(C(=O)NCc2cnn(-c3ccccc3)c2)n1 [Compound 100] |
| 7.01 to 8.40 | CC(C)NC(=O)c1cccc(C(=O)NCc2cnn(-c3ccc(S(=O)(=O)N4CCN(C(=O)OC(C)(C)C)CC4)c(Cl)c3)c2)n1 [Compound 247] |
| 7.01 to 8.40 | CC(C)NC(=O)c1cccc(C(=O)NCc2cnn(-c3ccc4ncn(C)c4c3)c2)n1 [Compound 147] |
